In US20230248745A1, “SILVER ENHANCED CANNABINOID ANTIBIOTICS” (priority 2020, published 2023):
“Also recorded” adds a separate entry of the source. Read-outs that look alike come from different tables or passages of the source.

Experiments:
MRSA (strain USA300) [1] = test: microbe, parasite or virus in culture; format: cell-based, Methicillin-resistant Staphylococcus aureus; details: agent alone, silver expressed as silver
Description: In therapeutic applications, synergy between active ingredients occurs when an observed combined therapeutic effect is greater than the sum of therapeutic effects of individual active ingredients, or a new therapeutic effect is produced that the active ingredients could not produce alone. […] In this context, the enhancement of therapeutic effect may take the form of increased efficacy or potency and/or decreased adverse effects. The synergistic effect may be mediated in whole or in part by the pharmacokinetics and/or pharmacodynamics of the active ingredients in a subject, so that the amount and proportion of the ingredients in the formulation may be synergistic in vivo. This in vivo synergy may be effected with a formulation that includes the active ingredients in amounts and proportions that are also synergistic in in vitro assays of efficacy. As used herein, the term “synergistically effective amounts” accordingly refers to amounts that are synergistic in vivo and/or in vitro. A numeric quantification of synergy is often expressed as a fractional inhibitory concentration index (FICI), which represents the sum of the fractional inhibitory concentrations (FICs) of each drug tested, where the FIC is determined for each drug by dividing the minimum inhibitory concentration (MIC, the lowest concentration of the drug which prevents visible growth of the bacterium in a standard in vitro assay—standard colorometric assay based on resazurin) of each drug when used in combination by the MIC of each drug when used alone. In very general terms, a FICI lower or higher than 1 indicates positively correlated activity (at least additive or potentiation) or an absence of positive interactions, respectively. […] (as described and used by Joung D K et al. and Rakoliya K et al.)
(§1) Cannabinoids or silver (expressed as the concentration of silver not the salt) were serially diluted 2-fold across the 96-well plate (Costar, catalog no. 3370) followed by addition of 100 μL of bacterial cultures with an OD600 of 0.0025. […] Wells turbidity were then analyzed using Varioskan™ microplate reader.

MRSA (strain USA300) [2] = test: Kill-curve test (CFU over time); format: cell-based, Methicillin-resistant Staphylococcus aureus; details: for MRSA growth by 24 hours: cannabinoid alone at ½×MIC
Experimental: (§2) Antibacterial growth was measured using a checkerboard analysis or qualitatively using agar plates with zones of inhibition. Viability was measured by the number of colony forming units (CFU) over time.
(§3) MRSA strain, USA300, was cultured in Luria-Bertani (LB) medium and inoculated at 37 C.
(§4) For each test tube, 1 mL of culture at OD600 of 0.005 was added to 1 mL of LB medium containing antibiotics to reach target sub-MIC concentrations of each compound. Samples of 100 μL was extracted from each tube at the determined time stamps followed by 10-fold serial dilutions. 10 μL of each dilution was then added on the LB agar plates that were subsequently incubated for 24 hours. Colonies were inspected and results quantified as log CFU/mL.

E. coli (strain K12) = test: Kill-curve test (CFU over time); format: cell-based, Escherichia coli; details: for inhibitory effect on E. coli growth over 24 hours / inhibition of E. coli growth over 24 hours / inhibition of E. coli growth (summary): cannabinoid alone; for inhibitory effect on E. coli growth over 24 hours: 8 mg/L; for inhibition of E. coli growth over 24 hours: 16 mg/L; for inhibition of E. coli growth (summary): concentrations up to 16 mg/L
Experimental: as §2
(§5) Escherichia coli (E. coli), strain K12, was cultured in Luria-Bertani (LB) medium and inoculated at 37 C.
as §4

MRSA (USA300) = test: Checkerboard assay, FICI of cannabinoid/silver combinations; format: cell-based, Methicillin-resistant Staphylococcus aureus; details: for FICI: Silver Nitrate in combination with the cannabinoid; for interaction (interpretation of FICI): cannabinoid with silver nitrate
Experimental: as §2
(§6) Using checkerboard analysis, the fractional inhibitory concentration index (FICI) was calculated for the 96-well plate test to illustrate synergy.
as §3, §1
(§7) FICI was calculated in a checkerboard assay based on the turbidity of the wells. FIC of each agent was determined as the ratio of the minimal inhibitory concentration MIC of one agent in the presence of the other agent to the MIC of that agent alone. FICI was consequently computed as the sum of each agent's FIC.

E. coli strain K12 = test: as above; format: cell-based, Escherichia coli; details: for FICI Silver Nanoparticles: Silver Nanoparticles in combination with the cannabinoid; for FICI Silver Sulfate: Silver Sulfate in combination with the cannabinoid
Experimental: as §2, §6, §5, §1, §7

[3] = cannabinoid ½×MIC + AgNP ⅛×MIC (5 mg/L)
[4] = 8 mg/L cannabinoid + 2.5, 1.25 and 0.625 mg/L AgSO4 (each)
[5] = cannabinoid with silver sulfate

SMILES | MRSA growth by 24 hours (MRSA (strain USA300) [2]) | kill-curve effect (CFU) (MRSA (strain USA300) [2]; [3]) | time of onset of bactericidal effect (MRSA (strain USA300) [2]; [3]) | time through which bacterial growth was inhibited (E. coli (strain K12)) | time through which the effect persisted (E. coli (strain K12)) | time to the reduction in E. coli CFU (E. coli (strain K12)) | time through which E. coli growth was inhibited (E. coli (strain K12); [4]) | time to the reduction in E. coli CFU (E. coli (strain K12); [4]) | inhibitory effect on E. coli growth over 24 hours (E. coli (strain K12)) | inhibition of E. coli growth over 24 hours (E. coli (strain K12)) | inhibition of E. coli growth (summary) (E. coli (strain K12)) | FICI (MRSA (USA300)) | interaction (interpretation of FICI) (MRSA (USA300)) | FICI Silver Nanoparticles (E. coli strain K12) | FICI Silver Sulfate (E. coli strain K12) | interaction (interpretation of FICI) (E. coli strain K12; [5]) | further results
CCCCCc1cc2c(c(O)c1C(=O)O)C=CC(C)(CCC=C(C)C)O2 (centres unmarked) [CBCA, cannabichromenic acid] | returned to levels equal to that of 0×MIC treatment | rapid bactericidal effect | 2 h | 24 h | 24 h | ≤ 4 h | 24 h | ≤ 6 h | failed to achieve any inhibitory effect | failed to achieve any inhibition | fail to achieve any detectable inhibition | 2 | no improved antibiotic affect | 1.25 | 0.50 | synergistic | MIC (MRSA (strain USA300) [1]): 2 µg/mL; kill-curve effect (CFU) (MRSA (strain USA300) [2]): greater bactericidal effect; time of full elimination of CFU (MRSA (strain USA300) [2]; [3]): 4 h; time through which bactericidal effect persisted (MRSA (strain USA300) [2]; [3]): 24 h
C=C(C)[C@@H]1CCC(C)=C[C@H]1c1c(O)cc(CCCCC)cc1O [CBD, cannabidiol, reference compound] | returned to levels equal to that of 0×MIC treatment | rapid bactericidal effect | 2 h | – | – | – | – | – | – | no inhibition | fail to achieve any detectable inhibition | 2 | no improved antibiotic affect | 1.25 | 1 | not observed | MIC (MRSA (strain USA300) [1]; Staphylococcus aureus, read-out: MIC): 2 µg/mL; MRSA growth over 24 hours compared to cannabinoid alone (MRSA (strain USA300) [2]; [3]): substantive decrease; inhibition of E. coli growth over 24 hours by the combination (E. coli (strain K12); 16 mg/L cannabinoid + 2.5 mg/L AgSO4): did not result in a substantial inhibition; also recorded: no increase in antimicrobial activity
C=C(C)[C@@H]1CCC(C)=C[C@H]1c1c(O)cc(CCCCC)c(C(=O)O)c1O [CBDA, cannabidiolic acid] | – | – | – | 24 h | 24 h | ≤ 4 h | 24 h | ≤ 6 h | failed to achieve any inhibitory effect | failed to achieve any inhibition | fail to achieve any detectable inhibition | 2 | no improved antibiotic affect | 0.73 | 0.52 | potentiation | interaction (interpretation of FICI) (E. coli strain K12; cannabinoid with silver nanoparticles): potentiation
